Laboratory results: patent US5420131A, “Cyanomethylpyridine derivatives” (J. Uriach & Cia, S.A., priority 1993, dated 1995)

Experiments:
[1] = tested on: platelet aggregation induced by PAF; assay: Inhibition of platelet aggregation induced by PAF (rabbit platelet rich plasma, Born nephelometric technique); type: cell-based, male New Zealand albino rabbits; conditions: Oryctolagus cuniculus, rabbit PRP, 3×10^5 platelets/mm^3, PAF (C18) 15 nM
Protocol: Inhibition of platelet aggregation induced by PAF.
Blood is obtained by cardiac puncture of male New Zealand albino rabbits (b.w. 2-2.5 Kg) and coagulation is prevented by adding 1 part of 3.16% sodium citrate dihydrate in 9 parts of blood. Platelet rich plasma (PRP) is prepared by centrifuging the blood at 250×g for 10 min. at 4° C. and then it is diluted with platelet poor plasma (PPP) obtained by further centrifuging at 3000×g for 10 min. The platelet count is adjusted to 3×10^5 /mm^3. Platelet aggregation induced by PAF (C18, prepared in our laboratory) (15 nM) is determined by the Born nephelometric technique (J. Physiol., 1962, 162, 67) using an aggregometer Chrono-log 500. The activities of the inhibitors are expressed as the IC50 value, that is to say the concentration of the drug needed to inhibit platelet aggregation by 50%.

[2] = tested on: hypotensive effect induced by PAF in normotense rats; assay: Inhibition of the hypotensive effect induced by PAF in normotense rats; type: in vivo, male Sprage Dawley rats; conditions: Rattus norvegicus, iv, 0.05 h; i.v., test compound via femoral vein 3 min. before PAF 0.5 mcg/Kg i.v.; anaesthetized rats; read-out: ID50 (inhibition of PAF-induced hypotension)
Protocol: Inhibition of the hypotensive effect induced by PAF in normotense rats.
Male Sprage Dawley rats (b.w. 180-220 g) anaesthetized with sodium pentobarbital (50 mg/Kg, i.p. 1 mL/100 g) are used. In order to measure the arterial pressure, a polyethylene catheter is introduced into the carotid artery. The arterial pressure is recorded with the help of a transducer coupled to a R611 Beckman polygraph. The test compounds are administered through the femoral vein 3 min. before PAF injection (0.5 mcg/Kg, i.v.). Control animals receive only the vehicle.

SMILES	IC50 [1]	ED50 [2]
N#CC(c1cccnc1)C1CCN(C(=O)CC(NC(=O)c2ccc(OCc3ccc4ccccc4n3)cc2)c2ccccc2)CC1 (stereo not drawn) [Compound 7, 1-[3-[N-[p-(2-quinolylmethoxy)benzoyl]]amino-3-phenylpropionyl]-4-(3-pyridylcyanomethyl)piperidine]	55 nM	0.25 mg/kg
Cc1ncccc1C(C#N)N1CCN(C(=O)CC(NC(=O)c2ccc(OCc3ccc4ccccc4n3)cc2)c2ccccc2)CC1 (stereo not drawn) [Compound 5, 1-[3-[N-[p-(2-quinolylmethoxy)benzoyl]]amino-3-phenylpropionyl]-4-[(2-methyl-3-pyridyl)cyanomethyl]piperazine]	680 nM	0.21 mg/kg
N#CC(c1cccnc1)C1CCN(C(=O)[C@H](NC(=O)Cc2ccc(OCc3ccc4ccccc4n3)cc2)c2ccccc2)CC1 (stereo partly drawn) [Compound 10, 1-[N-[p-(2-quinolylmethoxy)phenylacetyl]-D-2-phenylglycinyl]-4-(3-pyridylcyanomethyl)piperidine]	550 nM	0.12 mg/kg
Cc1ncccc1C(C#N)N1CCN(C(=O)CC(NC(=O)c2cccc(OCc3ccc4ccccc4n3)c2)c2ccccc2)CC1 (stereo not drawn) [Compound 6, 1-[3-[N-[3-(2-quinolylmethoxy)benzoyl]]amino-3-phenylpropionyl]-4-[(2-methyl-3-pyridyl)cyanomethyl]piperazine]	740 nM	0.16 mg/kg
Cc1ncccc1C(C#N)N1CCN(C(=O)CC(NC(=O)Cc2ccc(OCc3ccc4ccccc4n3)cc2)c2ccccc2)CC1 (stereo not drawn) [Compound 3, 1-[3-[N-[p-(2-quinolylmethoxy)phenylacetyl]]amino-3-phenylpropionyl]-4-[(2-methyl-3-pyridiyl)cyanomethyl]piperazine]	80 nM	0.036 mg/kg
Cc1ncccc1C(C#N)N1CCN(C(=O)Cc2ccc(OCc3ccc4ccccc4n3)cc2)CC1 (stereo not drawn) [Compound 1, 1-[p-(2-Quinolylmethoxy)phenylacetyl]-4-[(2-methyl-3-pyridyl)cyanomethyl]piperazine]	6700 nM	0.69 mg/kg
Cc1ncccc1C(C#N)N1CCN(C(=O)CNC(c2ccccc2)c2ccc(OCc3ccc4ccccc4n3)cc2)CC1 (stereo not drawn) [Compound 2]	1800 nM	0.057 mg/kg
Cc1ncccc1C(C#N)N1CCN(C(=O)CC(NC(=O)Cc2cccc(OCc3ccc4ccccc4n3)c2)c2ccccc2)CC1 (stereo not drawn) [Compound 4, 1-[3-[N-[3-(2-quinolylmethoxy)phenylacetyl]]amino-3-phenylpropionyl]-4-[(2-methyl-3-pyridyl)cyanomethyl]piperazine]	12 nM	0.041 mg/kg
N#CC(c1cccnc1)C1CCN(C(=O)[C@H](NC(=O)c2cccc(OCc3ccc4ccccc4n3)c2)c2ccccc2)CC1 (stereo partly drawn) [Compound 13, 1-[N-[3-(2-quinolylmethoxy)benzoyl]-D-2-phenylglycinyl]-4-(3-pyridylcyanomethyl)piperidine]	660 nM	0.21 mg/kg
